Test results taken from patent EP3730489A1, “HETEROARYL COMPOUNDS AS AGROCHEMICAL FUNGICIDES” (BASF SE, priority 2019, dated 2020).

Assays:
Assay type in all cases: cell-based
Septoria tritici = test: Activity against leaf blotch on wheat caused by Septoria tritici (Septtr), microtiter plate test; conditions: relative growth vs active compound-free control (100%), measured at 405 nm 7 days after the inoculation
Protocol: (§1) The active compounds were formulated separately as a stock solution having a concentration of 10000 ppm in dimethyl sulfoxide.
3. Activity against leaf blotch on wheat caused by Septoria tritici (Septtr)
(§2) The stock solutions were mixed according to the ratio, pipetted onto a micro titer plate (MTP) and diluted with water to the stated concentrations. A spore suspension of Septoria tritici in an aqueous biomalt or yeast-bactopeptone-glycerine solution was then added. The plates were placed in a water vapor-saturated chamber at a temperature of 18°C. Using an absorption photometer, the MTPs were measured at 405 nm 7 days after the inoculation.
(§3) The measured parameters were compared to the growth of the active compound-free control variant (100%) and the fungus-free and active compound-free blank value to determine the relative growth in % of the pathogens in the respective active compounds.

Fusarium culmorum = test: Activity against Fusarium culmorum (Fusacu), microtiter plate test; conditions: relative growth vs active compound-free control (100%), measured at 405 nm 7 days after the inoculation; for activity at 31 ppm: Fusarium culmorum, 168 h
Protocol: as §1
4. Activity against Fusarium culmorum (Fusacu)
as §2, with “Fusarium culmorum” for “Septoria tritici”
as §3

Botrytis cinerea = test: Activity against the grey mold Botrytis cinerea in the microtiterplate test (Botrci); conditions: relative growth vs active compound-free control (100%), measured at 405 nm 7 days after the inoculation
Protocol: as §1
1. Activity against the grey mold Botrytis cinerea in the microtiterplate test (Botrci)
as §2, with “Botrci cinerea” for “Septoria tritici”, “yeast-bactopeptone-sodiumacetate” for “yeast-bactopeptone-glycerine”
as §3

Molecule | growth (%) at 31ppm Septtr (Septoria tritici) | growth (%) at 31ppm Fusacu (Fusarium culmorum) | growth (%) at 31ppm Botrci (Botrytis cinerea) | activity at 31 ppm (Fusarium culmorum)
3-[3-(trifluoromethyl)-2-thienyl]-1H-indole-5-carbonitrile [Example 1] | 14% | 0% |  | 
N#Cc1ccc2[nH]cc(-c3ocnc3C(F)(F)F)c2c1 [Example 2, 3-[4-(trifluoromethyl)oxazol-5-yl]-1H-indole-5-carbonitrile] |  |  | 6% | 7%
C#Cc1cnc2[nH]cc(-c3ocnc3C(F)(F)F)c2c1 [Example 6, 5-(5-ethynyl-1H-pyrrolo[2,3-b]pyridin-3-yl)-4-(trifluoromethyl)oxazole] | 12% |  | 5% | 1%
Fc1cnc2[nH]cc(-c3ocnc3C(F)(F)F)c2c1 [Example 8, 5-(5-fluoro-1H-pyrrolo[2,3-b]pyridin-3-yl)-4-(trifluoromethyl)oxazole] |  |  |  | 6%
Fc1cnc2[nH]cc(-c3ocnc3I)c2c1 [Example 9, 5-(5-fluoro-1H-pyrrolo[2,3-b]pyridin-3-yl)-4-iodooxazole] |  |  |  | 11%
Clc1ccsc1-c1c[nH]c2ccc(Br)cc12 [Example P1] | 8% |  | 0% | 1%
C#Cc1ccc2[nH]cc(-c3sccc3Cl)c2c1 [Example P2] | 12% |  | 1% | 1%
Brc1ccc2[nH]cc(-c3sccc3Br)c2c1 [Example P3] | 0% |  | 0% | 0%
N#Cc1ccc2[nH]cc(-c3sccc3Br)c2c1 [Example P4] |  |  |  | 17%
FC(F)Oc1ccc2[nH]cc(-c3sccc3C(F)(F)F)c2n1 [Example P5] | 4% |  | 1% | 0%
FC(F)(F)c1ncoc1-c1c[nH]c2ccc(Br)cc12 [Example P6] | 2% |  | 1% | 
C#Cc1cnc2[nH]cc(-c3ocnc3Br)c2c1 [Example P8] | 15% |  |  | 0%
C#Cc1cnc2[nH]cc(-c3ocnc3C(F)F)c2c1 [Example P10] |  |  |  | 6%
Fc1ncc2[nH]cc(-c3sccc3C(F)(F)F)c2n1 [Example P17] |  |  |  | 14%
